Patent US6759547B1, “5,6,7,8-tetrahydronaphthalen-2-yl 2,6-difluoroheptatrienoic acid derivatives having serum glucose reducing activity” (Allergan, Inc., priority 2003, dated 2004)

Columns and labels:
RARβ [1] = molecular target: T1, RARβ (Homo sapiens, UniProt P10826); experiment: chimeric receptor transactivation assay, RARβ; type: cell-based; settings: for EC50: chimeric assay, read-out: RAR Trans. EC50 β; for RAR Trans. efficacy β: efficacy as a percentage compared to the standard compound
T1 sequence (P10826 183-417 limits assumed): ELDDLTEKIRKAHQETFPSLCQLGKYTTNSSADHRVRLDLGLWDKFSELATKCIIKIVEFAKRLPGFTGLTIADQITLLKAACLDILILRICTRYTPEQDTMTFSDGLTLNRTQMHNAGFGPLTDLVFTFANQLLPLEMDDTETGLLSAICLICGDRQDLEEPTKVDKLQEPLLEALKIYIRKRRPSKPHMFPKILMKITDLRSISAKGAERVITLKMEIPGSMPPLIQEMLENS
Source text: One such assay is a chimeric receptor transactivation assay which tests for agonist-like activity in the RARα RARβ and RARγ receptor subtypes, and which is based on work published by Feigner P. L. and Holm M. (1989) Focus, 112 is described in detail in U.S. Pat. No. 5,455,265. The specification of U.S. Pat. No. 5,455,265 is hereby expressly incorporated by reference.
Table 1 discloses the activity of certain exemplary compounds of the invention in the above-described receptor transactivation and binding assays. Particularly, the transactivation data pertaining to activation of the RAR receptors were obtained in the chimeric assay, and the transactivation data pertaining to the activation of RXR receptors were obtained in the holoreceptor assay.

RXRα [2] = molecular target: T2, RXRα (Homo sapiens, UniProt P19793); experiment: holoreceptor transactivation assay, RXRα; type: cell-based; settings: for RXR Trans. efficacy α: efficacy as a percentage compared to the standard compound; for EC50: holoreceptor assay, read-out: RXR Trans. EC50 α
T2 construct: expressed in transfected cells
T2 sequence (P19793 1-462): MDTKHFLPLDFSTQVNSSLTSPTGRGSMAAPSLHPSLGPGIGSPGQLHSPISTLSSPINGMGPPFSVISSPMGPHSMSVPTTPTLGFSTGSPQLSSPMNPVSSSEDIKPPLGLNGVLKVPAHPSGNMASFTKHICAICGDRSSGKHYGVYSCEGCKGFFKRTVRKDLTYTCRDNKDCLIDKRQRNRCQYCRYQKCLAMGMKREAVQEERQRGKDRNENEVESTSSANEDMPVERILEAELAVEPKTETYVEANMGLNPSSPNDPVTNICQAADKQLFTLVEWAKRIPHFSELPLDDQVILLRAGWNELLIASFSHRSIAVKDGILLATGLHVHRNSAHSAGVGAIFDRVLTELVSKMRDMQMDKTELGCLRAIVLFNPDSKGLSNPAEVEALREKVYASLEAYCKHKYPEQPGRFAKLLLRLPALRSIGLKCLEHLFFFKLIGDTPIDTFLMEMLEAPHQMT
Source text: (§1) Particularly, the transactivation data pertaining to activation of the RAR receptors were obtained in the chimeric assay, and the transactivation data pertaining to the activation of RXR receptors were obtained in the holoreceptor assay.

RXRβ [3] = molecular target: T3, RXRβ (Homo sapiens, UniProt P28702); experiment: holoreceptor transactivation assay, RXRβ; type: cell-based; settings: for RXR Trans. efficacy β: efficacy as a percentage compared to the standard compound; for EC50: holoreceptor assay, read-out: RXR Trans. EC50 β; for efficacy in activating RXRβ compared with RXRα and RXRγ: transactivation, comparison of subtypes
T3 construct: expressed in transfected cells
T3 sequence (P28702 1-533): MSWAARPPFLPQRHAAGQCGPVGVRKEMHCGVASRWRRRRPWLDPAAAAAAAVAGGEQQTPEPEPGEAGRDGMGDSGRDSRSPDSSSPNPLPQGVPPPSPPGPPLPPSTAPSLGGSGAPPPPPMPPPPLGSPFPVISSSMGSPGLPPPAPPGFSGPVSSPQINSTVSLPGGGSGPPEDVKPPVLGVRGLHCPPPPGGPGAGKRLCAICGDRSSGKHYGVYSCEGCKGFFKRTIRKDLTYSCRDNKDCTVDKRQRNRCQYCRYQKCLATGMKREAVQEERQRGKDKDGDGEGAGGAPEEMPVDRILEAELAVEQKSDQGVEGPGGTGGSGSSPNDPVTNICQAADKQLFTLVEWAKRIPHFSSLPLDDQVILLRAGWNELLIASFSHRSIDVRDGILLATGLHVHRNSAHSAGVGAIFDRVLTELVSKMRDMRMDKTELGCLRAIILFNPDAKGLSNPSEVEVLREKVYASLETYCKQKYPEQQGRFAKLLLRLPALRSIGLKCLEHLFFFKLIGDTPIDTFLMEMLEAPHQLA
Source text: as §1

RARβ [4] = molecular target: T4, RARβ (Homo sapiens, UniProt P10826); experiment: ligand binding assay, RARβ; settings: read-out: RAR Bind. K1 β
T4 sequence (P10826 1-455): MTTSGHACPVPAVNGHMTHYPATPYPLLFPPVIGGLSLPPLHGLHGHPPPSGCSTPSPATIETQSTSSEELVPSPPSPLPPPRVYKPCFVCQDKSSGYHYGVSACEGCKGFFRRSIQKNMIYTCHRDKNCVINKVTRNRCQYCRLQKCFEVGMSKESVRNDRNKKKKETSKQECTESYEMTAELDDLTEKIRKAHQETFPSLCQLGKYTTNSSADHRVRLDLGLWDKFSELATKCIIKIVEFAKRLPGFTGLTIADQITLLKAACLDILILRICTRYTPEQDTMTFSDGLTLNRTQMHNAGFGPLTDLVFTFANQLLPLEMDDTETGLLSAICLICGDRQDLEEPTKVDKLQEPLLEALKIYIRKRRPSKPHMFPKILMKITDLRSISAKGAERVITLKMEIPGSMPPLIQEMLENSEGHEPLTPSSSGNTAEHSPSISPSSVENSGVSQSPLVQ
Source text: (§2) The results obtained in this assay are expressed in EC50 numbers, as they are also in the chimeric receptor transactivation assay. The results of the ligand binding assay are expressed in Ki numbers.

RARγ = molecular target: T5, RARγ (Homo sapiens, UniProt P13631); experiment: ligand binding assay, RARγ; settings: read-out: RAR Bind. K1 γ
T5 sequence (P13631 1-454): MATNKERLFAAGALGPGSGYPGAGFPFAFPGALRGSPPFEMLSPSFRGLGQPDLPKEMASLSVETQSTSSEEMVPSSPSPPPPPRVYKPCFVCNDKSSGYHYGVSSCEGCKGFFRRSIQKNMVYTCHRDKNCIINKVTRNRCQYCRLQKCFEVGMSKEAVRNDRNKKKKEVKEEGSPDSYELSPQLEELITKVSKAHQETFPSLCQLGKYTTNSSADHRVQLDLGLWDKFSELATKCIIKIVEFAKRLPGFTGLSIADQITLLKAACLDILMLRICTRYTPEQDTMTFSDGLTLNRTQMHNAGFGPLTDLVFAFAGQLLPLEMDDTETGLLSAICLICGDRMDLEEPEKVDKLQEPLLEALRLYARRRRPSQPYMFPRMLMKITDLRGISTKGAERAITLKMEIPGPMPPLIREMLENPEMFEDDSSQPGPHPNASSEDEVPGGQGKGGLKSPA
Source text: as §2

RXRα [5] = molecular target: T2, RXRα; experiment: ligand binding assay, RXRα; settings: read-out: RXR Bind K1 α
Source text: as §2

RXRβ [6] = molecular target: T3, RXRβ; experiment: ligand binding assay, RXRβ; settings: read-out: RXR Bind K1 β
Source text: The results of the ligand binding assay are expressed in Ki numbers.

Compound | EC50 (RARβ [1]) [nM] | RAR Trans. efficacy β (RARβ [1]) [%] | RXR Trans. efficacy α (RXRα [2]) [%] | EC50 (RXRα [2]) [nM] | RXR Trans. efficacy β (RXRβ [3]) [%] | EC50 (RXRβ [3]) [nM] | efficacy in activating RXRβ compared with RXRα and RXRγ (RXRβ [3]) | Ki (RARβ [4]) [nM] | Ki (RARγ) [nM] | Ki (RXRα [5]) [nM] | Ki (RXRβ [6]) [nM]
CCCOc1cc2c(cc1\C(C)=C(F)/C=C/C(C)=C(\F)C(=O)O)C(C)(C)CCC2(C)C [Compound 11, (2Z,4E,6E)-2,6-Difluoro-3-methyl-7-(5,5,8,8-tetramethyl-3-propoxy-5,6,7,8-tetrahydro-naphthalen-2-yl)-octa-2,4,6-trienoic acid] | > 1000 | 25 | 7 | 3 | 24 | 43 | significantly more effective in activating the RXRβ subtype | 1720 | 250 | 11 | 65
CC/C(=C(F)/C=C/C(C)=C(\F)C(=O)O)c1cc2c(cc1OCOC)C(C)(C)CCC2(C)C [Compound 21, (2Z,4E,6E)-2,6-Difluoro-7-(3-methoxymethoxy-5,5,8,8-tetramethyl-5,6,7,8-tetrahydro-naphthalen-2-yl)-3-methyl-nona-2,4,6-trienoic acid] | 170 | 24 | 41 | 9 | 45 | 91 | significantly more effective in activating the RXRβ subtype | 590 | 940 | 12 | 60
CCOc1cc2c(cc1\C(CC)=C(F)/C=C/C(C)=C(\F)C(=O)O)C(C)(C)CCC2(C)C [Compound 27, (2Z,4E,6E)-7-(3-Ethoxy-5,5,8,8-tetramethyl-5,6,7,8-tetrahydro-naphthalen-2-yl)-2,6-difluoro-3-methyl-nona-2,4,6-trienoic acid] | 95 | 14 | 30 | 4 | 43 | 32 | significantly more effective in activating the RXRβ subtype | 1800 | 6400 | 5 | 20
